# From ChEMBL document CHEMBL5154766, “Synthesis, bioevaluation and molecular dynamics of pyrrolo-pyridine benzamide derivatives as potential antitumor agents in vitro and in vivo” (Eur J Med Chem, 2022)
# Active and inactive are the calls of the source. The rule behind the calls is not given here.
# What was measured:
# MCF7 = assay: Antiproliferative activity against human MCF7 cells expressing c-Met after 48 hrs by MTT assay; format: functional, cell-based; settings: MCF7, 48 h
# A549 [1] = assay: Antiproliferative activity against human A549 cells expressing c-Met after 48 hrs by MTT assay; format: functional, cell-based; settings: A549, 48 h
# HeLa = assay: Antiproliferative activity against human HeLa cells expressing c-Met after 48 hrs by MTT assay; format: functional, cell-based
# A549 [2] = assay: Induction of cell cycle arrest in human A549 cells assessed as accumulation at G0/G1 phase at 10 uM measured by flow cytometry (reference value: 57.68%); format: functional
# A549 [3] = assay: Induction of apoptosis in human A549 cells assessed as cytoplasmic shrinkage at 1 to 5 uM measured after 12 hrs by Acridine orange staining method; format: functional, cell-based; settings: dose 1-5 µM
# A549 [4] = assay: Antitumor activity against human A549 cells xenografted in BALB/c nude mouse assessed as reduction in Ki67 expression at 20 mg/kg, ip administered every two days for 18 days by immunohistochemistry; format: functional, organism-based; settings: time 18.0 day
# A549 [5] = assay: Downregulation of c-Met expression in human A549 cells at 5 to 10 uM measured by fluorescence quantitative PCR analysis; format: functional, cell-based; settings: dose 5-10 µM
# A549 [6] = assay: Induction of apoptosis in human A549 cells assessed as early apoptotic cells at 2.5 uM measured after 24 hrs by PI/Annexin V staining based flow cytometry assay (reference value: 2.5%); format: functional
# [7] = Toxicity in BALB/c nude mouse xenografted with human A549 cells assessed as effect on body weight at 20 mg/kg, ip administered every two days for 18 days; format: organism-based; settings: in vivo, 432 h, time 18 day
# A549 [8] = assay: Induction of cell cycle arrest in human A549 cells assessed as accumulation at G2/M phase at 10 uM measured by flow cytometry (reference value: 7.98%); format: functional
# A549 [9] = assay: Induction of apoptosis in human A549 cells assessed as late apoptotic cells at 5 uM measured after 24 hrs by PI/Annexin V staining based flow cytometry assay (reference value: 4.49%); format: functional
# A549 [10] = assay: Induction of cell cycle arrest in human A549 cells assessed as accumulation at S phase at 2.5 uM measured by flow cytometry (reference value: 34.34%); format: functional
# A549 [11] = assay: Induction of apoptosis in human A549 cells assessed as late apoptotic cells at 2.5 uM measured after 24 hrs by PI/Annexin V staining based flow cytometry assay (reference value: 4.49%); format: functional
# A549 [12] = assay: Induction of apoptosis in human A549 cells assessed as early apoptotic cells at 5 uM measured after 24 hrs by PI/Annexin V staining based flow cytometry assay (reference value: 2.5%); format: functional
# [13] = Toxicity in BALB/c nude mouse xenografted with human A549 cells assessed as effect on liver at 20 mg/kg, ip administered every two days for 18 days by H and E staining method; format: organism-based; settings: in vivo, 432 h, time 18 day
# [14] = Toxicity in BALB/c nude mouse xenografted with human A549 cells assessed as effect on kidney at 20 mg/kg, ip administered every two days for 18 days by H and E staining method; format: organism-based; settings: in vivo, 432 h, time 18 day
# A549 [15] = assay: Induction of apoptosis in human A549 cells assessed as cell fragment formation at 1 to 5 uM measured after 12 hrs by Acridine orange staining method; format: functional, cell-based; settings: dose 1-5 µM
# A549 [16] = assay: Induction of cell cycle arrest in human A549 cells assessed as accumulation at G0/G1 phase at 2.5 uM measured by flow cytometry (reference value: 57.68%); format: functional
# A549 [17] = assay: Induction of cell cycle arrest in human A549 cells assessed as accumulation at G2/M phase at 5 uM measured by flow cytometry (reference value: 7.98%); format: functional
# A549 [18] = assay: Induction of apoptosis in human A549 cells assessed as late apoptotic cells at 10 uM measured after 24 hrs by PI/Annexin V staining based flow cytometry assay (reference value: 4.49%); format: functional
# A549 [19] = assay: Induction of apoptosis in human A549 cells assessed as membrane swelling at 1 to 5 uM measured after 12 hrs by Acridine orange staining method; format: functional, cell-based; settings: dose 1-5 µM
# A549 [20] = assay: Induction of apoptosis in human A549 cells assessed as apoptotic bodies formation at 1 to 5 uM measured after 12 hrs by Acridine orange staining method; format: functional, cell-based; settings: dose 1-5 µM
# A549 [21] = assay: Induction of apoptosis in human A549 cells assessed as increase in chromatin contraction at 1 to 5 uM measured after 12 hrs by Acridine orange staining method; format: functional, cell-based; settings: dose 1-5 µM
# A549 [22] = assay: Antitumor activity against human A549 cells xenografted in BALB/c nude mouse assessed as tumor growth inhibition at 20 mg/kg, ip administered every two days for 18 days; format: functional; settings: A549, 432 h, time 18 day, read-out: TGI
# A549 [23] = assay: Induction of cell cycle arrest in human A549 cells assessed as accumulation at G0/G1 phase at 5 uM measured by flow cytometry (reference value: 57.68%); format: functional
# A549 [24] = assay: Induction of cell cycle arrest in human A549 cells assessed as accumulation at S phase at 10 uM measured by flow cytometry (reference value: 34.34%); format: functional
# [25] = Toxicity in BALB/c nude mouse xenografted with human A549 cells assessed as effect on heart at 20 mg/kg, ip administered every two days for 18 days by H and E staining method; format: organism-based; settings: in vivo, 432 h, time 18 day
# A549 [26] = assay: Induction of cell cycle arrest in human A549 cells assessed as accumulation at G2/M phase at 2.5 uM measured by flow cytometry (reference value: 7.98%); format: functional
# A549 [27] = assay: Induction of cell cycle arrest in human A549 cells assessed as accumulation at S phase at 5 uM measured by flow cytometry (reference value: 34.34%); format: functional
# A549 [28] = assay: Induction of apoptosis in human A549 cells assessed as early apoptotic cells at 10 uM measured after 24 hrs by PI/Annexin V staining based flow cytometry assay (reference value: 2.5%); format: functional
compound,measurement,setting,value
O=C(Nc1ccc(Oc2ccnc3[nH]ccc23)c(F)c1)c1cn(-c2ccc(F)cc2)c2ncccc2c1=O,IC50,MCF7,7.16 µM
same,IC50,A549 [1],6.42 µM
same,IC50,HeLa,14.9 µM
O=C(Nc1ccc(Oc2ccnc3[nH]ccc23)c(F)c1)c1cn(-c2ccc(Br)cc2)c2ncccc2c1=O,Activity,A549 [2],69.22%
same,Activity,A549 [3],Active
same,IC50,MCF7,0.11 µM
same,Activity,A549 [4],Active
same,Activity,A549 [5],Active
same,Activity,A549 [6],3.33%
same,Activity,[7],Non-Toxic
same,Activity,A549 [8],15.48%
same,IC50,A549 [1],1.06 µM
same,Activity,A549 [9],8.13%
same,Activity,A549 [10],31.09%
same,Activity,A549 [11],5.58%
same,Activity,A549 [12],2.2%
same,Activity,[13],Non-Toxic
same,Activity,[14],Non-Toxic
same,Activity,A549 [15],Active
same,Activity,A549 [16],58.72%
same,Activity,A549 [17],13.01%
same,Activity,A549 [18],12.69%
same,Activity,A549 [19],Active
same,Activity,A549 [20],Active
same,Activity,A549 [21],Active
same,inhibition in vivo at 20 mg/kg,A549 [22],64.5%
same,Activity,A549 [23],60.15%
same,Activity,A549 [24],15.31%
same,Activity,[25],Non-Toxic
same,IC50,HeLa,10.9 µM
same,Activity,A549 [26],10.19%
same,Activity,A549 [27],26.84%
same,Activity,A549 [28],4%
Cn1ccc2c(Oc3ccc(NC(=O)c4cn(-c5ccccc5)c5ncccc5c4=O)cc3)ccnc21,IC50,MCF7,13.1 µM
same,IC50,A549 [1],22.3 µM
same,IC50,HeLa,77 µM
O=C(Nc1ccc(Oc2ccnc3[nH]ccc23)cc1)c1cn(-c2ccccc2)c2ncccc2c1=O,IC50,MCF7,46.7 µM
same,IC50,A549 [1],18.2 µM
same,IC50,HeLa,80 µM
O=C(Nc1ccc(Oc2ccnc3[nH]ccc23)cc1)c1cn(-c2ccc(F)c(Cl)c2)c2ncccc2c1=O,IC50,MCF7,2.01 µM
same,IC50,A549 [1],12.4 µM
same,IC50,HeLa,14.2 µM
Cn1ccc2c(Oc3ccc(NC(=O)c4cn(-c5ccc(Br)cc5F)c5ncccc5c4=O)cc3)ccnc21,IC50,A549 [1],28.7 µM
O=C(Nc1ccc(Oc2ccnc3[nH]ccc23)c(F)c1)c1cn(-c2ccc(C(F)(F)F)cc2Cl)c2ncccc2c1=O,IC50,MCF7,13 µM
same,IC50,A549 [1],9.15 µM
same,IC50,HeLa,27.8 µM
Cn1ccc2c(Oc3ccc(NC(=O)c4cn(-c5ccc(F)cc5)c5ncccc5c4=O)cc3)ccnc21,IC50,A549 [1],16.8 µM
same,IC50,HeLa,76.6 µM
O=C(Nc1ccc(Oc2ccnc3[nH]ccc23)cc1)c1cn(-c2ccc(Br)cc2)c2ncccc2c1=O,IC50,MCF7,30.8 µM
same,IC50,A549 [1],8.39 µM
same,IC50,HeLa,49.3 µM
O=C(Nc1ccc(Oc2ccnc3[nH]ccc23)c(F)c1)c1cn(-c2ccc(F)c(Cl)c2)c2ncccc2c1=O,IC50,MCF7,12 µM
same,IC50,A549 [1],9.71 µM
same,IC50,HeLa,53.1 µM
Cn1ccc2c(Oc3ccc(NC(=O)c4cn(-c5ccc(C(F)(F)F)cc5Cl)c5ncccc5c4=O)cc3)ccnc21,IC50,HeLa,80.3 µM
Cn1ccc2c(Oc3ccc(NC(=O)c4cn(-c5ccc(Br)cc5)c5ncccc5c4=O)cc3)ccnc21,IC50,MCF7,29.1 µM
same,IC50,A549 [1],10.8 µM
same,IC50,HeLa,50.2 µM
Cn1ccc2c(Oc3ccc(NC(=O)c4cn(-c5ccccc5)c5ncccc5c4=O)cc3F)ccnc21,IC50,MCF7,14.8 µM
same,IC50,A549 [1],16.9 µM
Cn1ccc2c(Oc3ccc(NC(=O)c4cn(-c5ccc(Br)cc5)c5ncccc5c4=O)cc3F)ccnc21,IC50,MCF7,5.49 µM
same,IC50,A549 [1],10.2 µM
O=C(Nc1ccc(Oc2ccnc3[nH]ccc23)c(F)c1)c1cn(-c2ccc(Cl)cc2)c2ncccc2c1=O,IC50,A549 [1],5.29 µM
O=C(Nc1ccc(Oc2ccnc3[nH]ccc23)cc1)c1cn(-c2ccc(Cl)cc2)c2ncccc2c1=O,IC50,HeLa,53.3 µM
Cn1ccc2c(Oc3ccc(NC(=O)c4cn(-c5ccc(F)c(Cl)c5)c5ncccc5c4=O)cc3)ccnc21,IC50,MCF7,48.6 µM
same,IC50,A549 [1],15.1 µM
Cn1ccc2c(Oc3ccc(NC(=O)c4cn(-c5ccc(Br)cc5F)c5ncccc5c4=O)cc3F)ccnc21,IC50,A549 [1],29.9 µM
same,IC50,HeLa,61.2 µM
Cn1ccc2c(Oc3ccc(NC(=O)c4cn(-c5ccc(Cl)cc5)c5ncccc5c4=O)cc3)ccnc21,IC50,A549 [1],15.3 µM
same,IC50,HeLa,63 µM
COc1ccc(-n2cc(C(=O)Nc3ccc(Oc4ccnc5[nH]ccc45)cc3)c(=O)c3cccnc32)cc1,IC50,MCF7,47.2 µM
same,IC50,A549 [1],26 µM
same,IC50,HeLa,95.4 µM
O=C(Nc1ccc(Oc2ccnc3[nH]ccc23)cc1)c1cn(-c2ccc(C(F)(F)F)cc2Cl)c2ncccc2c1=O,IC50,HeLa,50.3 µM
COc1ccc(-n2cc(C(=O)Nc3ccc(Oc4ccnc5[nH]ccc45)c(F)c3)c(=O)c3cccnc32)cc1,IC50,MCF7,1.18 µM
same,IC50,A549 [1],7.23 µM
same,IC50,HeLa,19.9 µM
O=C(Nc1ccc(Oc2ccnc3[nH]ccc23)cc1)c1cn(-c2ccc(Br)cc2F)c2ncccc2c1=O,IC50,A549 [1],22.7 µM
COc1cc2nccc(Oc3ccc(NC(=O)C4(C(=O)Nc5ccc(F)cc5)CC4)cc3)c2cc1OC [CABOZANTINIB],IC50,MCF7,30.9 µM
same,Activity,A549 [4],Active
same,Activity,[7],Non-Toxic
same,IC50,A549 [1],0.33 µM
same,Activity,A549 [9],6.89%
same,Activity,A549 [12],2.32%
same,Activity,[13],Non-Toxic
same,Activity,[14],Non-Toxic
same,Activity,A549 [17],15.48%
same,inhibition in vivo at 20 mg/kg,A549 [22],47.9%
same,Activity,A549 [23],69.22%
same,Activity,[25],Non-Toxic
same,IC50,HeLa,79.1 µM
same,Activity,A549 [27],15.31%
O=C(Nc1ccc(Oc2ccnc3[nH]ccc23)c(F)c1)c1cn(-c2ccccc2)c2ncccc2c1=O,IC50,MCF7,13 µM
same,IC50,A549 [1],6.51 µM
same,IC50,HeLa,29.3 µM
COc1ccc(-n2cc(C(=O)Nc3ccc(Oc4ccnc5c4ccn5C)cc3)c(=O)c3cccnc32)cc1,IC50,MCF7,44.9 µM
same,IC50,A549 [1],30.6 µM
O=C(Nc1ccc(Oc2ccnc3[nH]ccc23)c(F)c1)c1cn(-c2ccc(Br)cc2F)c2ncccc2c1=O,IC50,MCF7,55.6 µM
same,IC50,A549 [1],20.1 µM
O=C(Nc1ccc(Oc2ccnc3[nH]ccc23)cc1)c1cn(-c2ccc(F)cc2)c2ncccc2c1=O,IC50,A549 [1],9.62 µM
same,IC50,HeLa,86 µM
